{"source": "patent US20200352914A1", "about": "“METHODS OF TREATING HYPERTENSION WITH ACTIVATORS OF TIE-2” (Aerpio Pharmaceuticals, Inc., priority 2019, published 2020)", "key": {"eNOS": {"system": "eNOS", "assay": "eNOS and Akt phosphorylation in human endothelial cells (immunoprecipitation, immunoblotting)", "format": "cell-based", "procedure": "Confluent monolayers of human endothelial cells expressing FLAG-tagged eNOS cultured overnight in MCDB131 containing 0.1% BSA and then incubated with increasing concentrations of Compound 2 (0.3-30 μmol/L) or solvent (DMSO) for 30 minutes. In separate experiments, human endothelial cells were cultured overnight in MCDB131 containing 0.1% BSA and then incubated treated with Compound 2 (30 μmol/L) or solvent for 30 minutes and then stimulated with Yoda1 (1 μmol/L) or solvent for an additional 30 minutes. To inhibit Src, cells were pre-incubated with PP2 (1 μmol/L) for 30 min before incubation with Compound 2 and stimulation with Yoda1. After two washes with cold PBS, cells were collected with the aid of cell scrapers in a lysis buffer containing Tris/HCl pH 7.5 (50 mmol/L), NaCl (150 mmol/L), Triton X-100 (1%), NaPPi (10 mmol/L), NaF (20 mmol/L), orthovanadate (2 mmol/L), okadaic acid (10 nmol/L), β-glycerophosphate (50 mmol/L), phenylmethylsulfonyl fluoride (230 μmol/L), and EDTA-free protease inhibitors mix. The cell mixture was incubated for 30 minutes at 4° C. with vortexing, followed by centrifugation at 13000 rpm for 10 minutes at 4° C. To assess the eNOS-VE-PTP interaction, the following modifications were applied: 1) cells were incubated with the lysis buffer for one hour on an end-over-end rocker at 4° C. and gently vortexed until no cell clumps were observed; 2) lysates were not centrifuged after lysis. FLAG-tagged eNOS was immunoprecipitated using 30 μL of packed Anti-FLAG M2 Affinity Gel per mg protein lysate overnight. The recovered immunoprecipitates were washed three times with the lysis buffer, eluted by boiling samples for 10 minutes in SDS sample buffer, and then analyzed by SDS-PAGE and immunoblotting.\nProtein samples were separated by SDS-PAGE and then transferred to […] nitrocellulose membranes. Membranes were incubated overnight with primary antibodies against phospho-Tyr81 eNOS, phospho-Ser1177 eNOS, phospho-Ser633 eNOS, eNOS, phospho-Ser473 Akt, Akt, ABL1, VE-PTP, GAPDH, β-actin, followed by species-specific secondary antibodies anti-IgG conjugated with HRP. Proteins were visualized by enhanced chemiluminescence."}, "Sprague-Dawley rats": {"system": "Sprague-Dawley rats", "assay": "MCT lung injury rat model of pulmonary hypertension (TABLE 30)", "format": "in vivo", "conditions": "subset (n=3) of the monocrotaline group; s.c. injection at day 21", "procedure": "The MCT lung injury rat model was used to assess the effects of a Tie-2 activator disclosed herein, Compound 2, as a vasodilator of the pulmonary vasculature. At day 0, rats were treated with a single dose of 60 mg/kg monocrotaline (N=5) and compared to control rats (N=5), which were treated with vehicle. Animals from both groups underwent normal rodent care until day 21. At day 21, rats underwent simultaneous cannulation of the carotid and pulmonary artery/right ventricle. Arterial pressure was measured before and after subcutaneous injection of vehicle. Following the washout period of time, rats underwent the same measurements before and after subcutaneous injection of Compound 2. Hemodynamic endpoints included systemic pressure (via carotid catheterization) and pulmonary vascular pressure (right ventricular systolic pressure) vs. true pulmonary arterial pressure.\nFIG. 31 panel A illustrates the effects of Compound 2 on mean arterial blood pressure (ABP), heart rate, and right ventricular pressure. Each time point represents a beat-to-beat analysis for each variable over a 2-min period, which were then averaged. […] All animals received Compound 2 at time=0 min.\nAfter obtaining hemodynamic data, the rats were euthanized to assess the extent of RV hypertrophy, a marker of PH. […] RV hypertrophy was calculated based on the Fulton index using the following weight ratio: (RV/(LV+S))."}, "[1]": {"conditions": "30 μmol/L 30 minutes, then Yoda1 1 μmol/L 30 min"}}}
{"smiles": "CCc1nc([C@H](Cc2ccc(NS(=O)(=O)O)cc2)NC(=O)[C@H](Cc2ccccc2)NC(=O)OC)cs1", "note": "[Compound 2]", "values": [{"measurement": "Yoda1-induced phosphorylation of Akt on Ser473 and eNOS on Ser1177", "setting": "eNOS; [1]", "result": "also increased"}, {"measurement": "Yoda1-induced phosphorylation of eNOS on Ser633", "setting": "eNOS; [1]", "result": "not affected"}, {"measurement": "Yoda1-induced phosphorylation of eNOS on Tyr81", "setting": "eNOS; [1]", "result": "markedly enhanced"}, {"measurement": "eNOS phosphorylation on Tyr81 and Ser1177", "setting": "eNOS; 0.3-30 μmol/L, 30 minutes", "result": "led to phosphorylation of eNOS on Tyr81 and Ser1177"}, {"measurement": "right ventricular pressure", "setting": "Sprague-Dawley rats", "result": "significant drop in right ventricular pressure"}]}
